Reference: PubChem BioAssay (NCI)
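Results reflect a 48-hour exposure of cells in 96-well plates to compound at five concentrations. TGI: concentration producing complete growth inhibition.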

Legend:
Assay in all cases: growth of human tumour cells (NCI), 48 h
SF-295 CNS = system: SF-295 CNS
M19-MEL melanoma = system: M19-MEL melanoma
PC-3 prostate = system: PC-3 prostate
HOP-62 NSCLC = system: HOP-62 NSCLC
LXFL 529 NSCLC = system: LXFL 529 NSCLC
DLD-1 colon = system: DLD-1 colon
NCI-H460 lung = system: NCI-H460 lung
RXF 393 renal = system: RXF 393 renal
NCI-H226 lung = system: NCI-H226 lung
CAKI-1 renal = system: CAKI-1 renal
SR leukemia = system: SR leukemia
KM20L2 colon = system: KM20L2 colon
HCT-116 colon = system: HCT-116 colon
NCI-H522 lung = system: NCI-H522 lung
IGROV1 ovarian = system: IGROV1 ovarian
DMS 273 small cell lung = system: DMS 273 small cell lung
HT29 colon = system: HT29 colon
U251 CNS = system: U251 CNS
UO-31 renal = system: UO-31 renal
HL-60(TB) leukemia = system: HL-60(TB) leukemia
MALME-3M melanoma = system: MALME-3M melanoma
RPMI-8226 leukemia = system: RPMI-8226 leukemia
HS 578T breast = system: HS 578T breast
T-47D breast = system: T-47D breast
SK-MEL-5 melanoma = system: SK-MEL-5 melanoma
SN12C renal = system: SN12C renal
OVCAR-5 ovarian = system: OVCAR-5 ovarian
SNB-75 CNS = system: SNB-75 CNS
COLO 205 colon = system: COLO 205 colon
RXF-631 renal = system: RXF-631 renal
A549 NSCLC = system: A549 NSCLC
OVCAR-3 ovarian = system: OVCAR-3 ovarian
DU-145 prostate = system: DU-145 prostate
NCI/ADR-RES ovarian = system: NCI/ADR-RES ovarian
SF-539 CNS = system: SF-539 CNS
SNB-78 CNS = system: SNB-78 CNS
HCC-2998 colon = system: HCC-2998 colon
UACC-257 melanoma = system: UACC-257 melanoma
HCT-15 colon = system: HCT-15 colon
SK-OV-3 ovarian = system: SK-OV-3 ovarian
MOLT-4 leukemia = system: MOLT-4 leukemia
MDA-MB-231 breast = system: MDA-MB-231 breast
NCI-H23 lung = system: NCI-H23 lung
OVCAR-8 ovarian = system: OVCAR-8 ovarian
HOP-92 NSCLC = system: HOP-92 NSCLC
SW-620 colon = system: SW-620 colon
TK-10 renal = system: TK-10 renal
MDA-MB-435 = system: MDA-MB-435
A498 renal = system: A498 renal
786-0 renal = system: 786-0 renal
OVCAR-4 ovarian = system: OVCAR-4 ovarian
K-562 leukemia = system: K-562 leukemia
SK-MEL-2 melanoma = system: SK-MEL-2 melanoma
HOP-18 NSCLC = system: HOP-18 NSCLC
MCF7 breast = system: MCF7 breast
KM12 colon = system: KM12 colon
CCRF-CEM leukemia = system: CCRF-CEM leukemia
SNB-19 CNS = system: SNB-19 CNS
MDA-N = system: MDA-N
UACC-62 melanoma = system: UACC-62 melanoma
LOX IMVI melanoma = system: LOX IMVI melanoma
DMS 114 small cell lung = system: DMS 114 small cell lung
SF-268 CNS = system: SF-268 CNS
EKVX NSCLC = system: EKVX NSCLC
BT-549 breast = system: BT-549 breast
ACHN renal = system: ACHN renal
XF 498 CNS = system: XF 498 CNS
M14 melanoma = system: M14 melanoma
SK-MEL-28 melanoma = system: SK-MEL-28 melanoma

CC(=O)OC1CC[C@@]2(C)C(CC[C@]3(C)C2CC=C2[C@@H]4C(C)[C@H](C)CCC4(C)CCC23C)[C@@]1(C)C(=O)O (some centres undefined)
TGI (SF-295 CNS): 35.5 µM
TGI (M19-MEL melanoma): 51 µM
TGI (PC-3 prostate): 31.8 µM
TGI (HOP-62 NSCLC): 43.1 µM
TGI (LXFL 529 NSCLC): 39.4 µM
TGI (DLD-1 colon): 46.4 µM
TGI (NCI-H460 lung): 71.6 µM
TGI (RXF 393 renal): 49.4 µM
TGI (NCI-H226 lung): 53.4 µM
TGI (CAKI-1 renal): 35.1 µM
TGI (SR leukemia): 70.6 µM
TGI (KM20L2 colon): 29.4 µM
TGI (HCT-116 colon): 30.8 µM
TGI (NCI-H522 lung): 45.4 µM
TGI (IGROV1 ovarian): 46.9 µM
TGI (DMS 273 small cell lung): 46.8 µM
TGI (HT29 colon): 47.4 µM
TGI (U251 CNS): 58.2 µM
TGI (UO-31 renal): 39.9 µM
TGI (HL-60(TB) leukemia): 63.5 µM
TGI (MALME-3M melanoma): 49 µM
TGI (RPMI-8226 leukemia): 64.8 µM
TGI (HS 578T breast): 64.9 µM
TGI (T-47D breast): 43.3 µM
TGI (SK-MEL-5 melanoma): 35.5 µM
TGI (SN12C renal): 53.2 µM
TGI (OVCAR-5 ovarian): 33.3 µM
TGI (SNB-75 CNS): 35.8 µM
TGI (COLO 205 colon): 45 µM
TGI (RXF-631 renal): 68.6 µM
TGI (A549 NSCLC): 45.6 µM
TGI (OVCAR-3 ovarian): 40.4 µM
TGI (DU-145 prostate): 33.2 µM
TGI (NCI/ADR-RES ovarian): 45 µM
TGI (SF-539 CNS): 51.8 µM
TGI (SNB-78 CNS): 65.6 µM
TGI (HCC-2998 colon): 38.7 µM
TGI (UACC-257 melanoma): 40.9 µM
TGI (HCT-15 colon): 43.2 µM
TGI (SK-OV-3 ovarian): 40.4 µM
TGI (MOLT-4 leukemia): 69.6 µM
TGI (MDA-MB-231 breast): 49.6 µM
TGI (NCI-H23 lung): 51.6 µM
TGI (OVCAR-8 ovarian): 70 µM
TGI (HOP-92 NSCLC): 49.9 µM
TGI (SW-620 colon): 55.5 µM
TGI (TK-10 renal): 30.7 µM
TGI (MDA-MB-435): 40.6 µM
TGI (A498 renal): 37.2 µM
TGI (786-0 renal): 52.9 µM
TGI (OVCAR-4 ovarian): 66.7 µM
TGI (K-562 leukemia): 86.9 µM
TGI (SK-MEL-2 melanoma): 50.2 µM
TGI (HOP-18 NSCLC): 28.8 µM
TGI (MCF7 breast): 25.8 µM
TGI (KM12 colon): 53.9 µM
TGI (CCRF-CEM leukemia): 66.3 µM
TGI (SNB-19 CNS): 53.1 µM
TGI (MDA-N): 42.3 µM
TGI (UACC-62 melanoma): 35.3 µM
TGI (LOX IMVI melanoma): 51.7 µM
TGI (DMS 114 small cell lung): 39.6 µM
TGI (SF-268 CNS): 60.5 µM
TGI (EKVX NSCLC): 43.3 µM
TGI (BT-549 breast): 49.8 µM
TGI (ACHN renal): 36.8 µM
TGI (XF 498 CNS): 36.1 µM
TGI (M14 melanoma): 52.4 µM
TGI (SK-MEL-28 melanoma): 52 µM
